This passage reports viability results from publication PMC12040169 (PLOS Biology, 2025).

A short description of the first series: in vitro. Conditions: human, hela cells, % viability.
What is called viability is a read-out of living cells in per cent, often relative to untreated cells. On to `COc1ccc(-c2nnc(S)n2/N=C\c2ccc(C(=O)O)cc2)cc1` [CBK264419], for which the viability at 28.5 h, 10 µM was 92.4%.
On the same count and under the same terms, then `Cc1ccc(/C=C/C(=O)O)cc1S(=O)(=O)N1CCCc2ccccc21` [CBK264425], with 101%; and `O=C(O)CSc1nnc(-c2ccncc2)n1-c1ccccc1` [CBK264426], with 109%.
As for `Nc1nc(SCCCN2C(=O)c3cccc4cccc(c34)C2=O)nc2sc3c(c12)CCCC3` [CBK264433], the viability at 28.5 h, 10 µM stood at 99.1%.
In the case of `N#CCCN(Cc1ccccc1)C(=O)c1ccccc1[N+](=O)[O-]` [CBK264434], the viability at 28.5 h, 10 µM stood at 92.6%.
Take `CCc1ccc(OCC(=O)c2ccc(O)c(CN(C)C)c2O)cc1` [CBK264438C]: the viability at 28.5 h, 10 µM was determined as 116%.
The same measure, in the same setting: then `CC(=O)Nc1ccc(S(=O)(=O)N2CCN(c3ccc([N+](=O)[O-])c(NC4CC4)c3)CC2)cc1` [CBK264439], with 97.3%; and `Oc1ccc(-c2n[nH]c(C(F)(F)F)c2Oc2ccc(F)cc2)c(O)c1` [CBK264440], with 89.5%.
As to `COc1cccc(/C=C2/SC(=S)NC2=O)c1OCCCOc1ccc(C)cc1C` [CBK264441], the viability at 28.5 h, 10 µM is 94.8%.
The same measure, in the same setting: then `NC(=O)c1cc([N+](=O)[O-])ccc1NCCN1C(=O)c2ccc(C(=O)O)cc2C1=O` [CBK264444], with 105%.
Same read-out and setting: then `Oc1cccc2ccc(/C=C/c3ccc(-c4ccccc4Cl)o3)nc12` [CBK264445], with 97.7%; and `COc1cccc(/C=C2/SC(=S)N(C)C2=O)c1OCCCOc1ccc(C)cc1C` [CBK264446], with 102%.
As to `C(=C\C1Nc2ccccc2-c2nnc(SCc3ccccc3)nc2O1)/c1ccccc1` (stereo not drawn) [CBK264447], the viability at 28.5 h, 10 µM came out at 112%.
On the same count and under the same terms, then `COCC(=O)Nc1cc(OC)c(Cl)cc1OC` [CBK264448], with 103%; and `O=C(O)/C=C\C(=O)Nc1ccc(OCC(=O)O)cc1` [CBK264449], with 102%; and `O=[N+]([O-])c1cccc(-c2noc(COc3ccc(Br)cc3Cl)n2)c1` [CBK264452], with 101%.
On the same count and under the same terms, then `N/C(=N\OC(=O)CCCc1ccccc1)c1ccc(Cl)cc1` [CBK264454], with 107%.
Same read-out and setting: then `O=C(NCc1cccnc1)c1cc(S(=O)(=O)N2CCCC2)c(Cl)cc1Cl` [CBK264455], with 108%; and `CN(C)CCCN1C(=O)C(O)=C(C(=O)c2ccc(F)cc2)C1c1ccco1` (stereo not drawn) [CBK264456], with 94.6%; and `CCCc1cc(=O)oc2cc(OCC(=O)OC(C)C)c(Cl)cc12` [CBK264459], with 96.9%.
Take `O=S(=O)(c1ccccc1)N(CC(O)CN1CCCC1)c1cccc2ccccc12` (stereo not drawn) [CBK264464C]: the viability at 28.5 h, 10 µM is 93.9%.
The same measure, in the same setting: with `O=C(O)CC1S/C(=N/N=C/c2cn(Cc3ccccc3)c3ccccc23)NC1=O` (stereo not drawn) [CBK264466] the figure was 102%.
Same read-out and setting: with `C(=C\c1ccccc1)/CSc1nnc(CSc2nc3ccccc3s2)n1-c1ccccc1` [CBK264467] the figure was 101%; with `O=C(NCCCN1CCOCC1)c1ccc(/C=N/O)nc1` [CBK264468], 107%.
Same read-out and setting: with `O=C(CC1S/C(=N/N=C/c2ccc(-c3ccc(Cl)c([N+](=O)[O-])c3)o2)NC1=O)Nc1ccccc1` (stereo not drawn) [CBK264473] the figure was 92.9%; with `CCOC(=O)c1ccc(-c2ccc(/C=N/N=C3\NC(=O)C(CC(=O)O)S3)o2)cc1` (stereo not drawn) [CBK264474], 108%; with `Cc1ccc(C(=O)C2=C(O)C(=O)N(CCCn3ccnc3)C2c2ccncc2)cc1` (stereo not drawn) [CBK264476], 106%.
As to `Cc1[nH]nc(-c2ccc(O)c(C)c2O)c1Oc1ccc(F)cc1` [CBK264478], the viability at 28.5 h, 10 µM was determined as 124%.
On the same count and under the same terms, then `N#C/C(=C/c1ccc(-c2ccc(S(N)(=O)=O)cc2)o1)c1nc2ccccc2s1` [CBK264480], with 83.8%; and `Cc1sc2nc(SCCCC(=O)NCCO)nc(N)c2c1C` [CBK264482], with 96.2%; and `O=C(C1=C(O)C(=O)N(CCCn2ccnc2)C1c1ccccc1)c1cccs1` (stereo not drawn) [CBK264484], with 110%.
Same read-out and setting: with `Cc1cc(C)nc(SCCCn2c(=O)[nH]c3ccccc32)n1` [CBK264485] the figure was 112%; with `CN(C)CCN1C(=O)C(O)=C(C(=O)c2ccco2)C1c1ccc([N+](=O)[O-])cc1` (stereo not drawn) [CBK264486], 109%; with `O=c1c(Oc2ccc3ccccc3c2)c(C(F)(F)F)oc2c(CN3CCOCC3)c(O)ccc12` [CBK264487], 103%.
`NS(=O)(=O)c1ccc(NC(=O)c2cccnc2)cc1` [CBK264488]: the viability at 28.5 h, 10 µM turned out to be 106%.
As for `O=C(C1=C(O)C(=O)N(CCN2CCOCC2)C1c1cccc(Br)c1)c1ccco1` (stereo not drawn) [CBK264490], the viability at 28.5 h, 10 µM is 94.4%.
Turning to `COc1ccc(OC)c(C2C(C(=O)c3ccc(C)cc3)=C(O)C(=O)N2Cc2cccnc2)c1` (stereo not drawn) [CBK264492], the viability at 28.5 h, 10 µM came to 113%.
On the same count and under the same terms, with `Cc1ccc2ccccc2c1Cn1cc(-c2ccc([N+](=O)[O-])cc2)nc1SCC(=O)NC(C)(C)C` [CBK264493] the figure was 115%; with `c1ccc(-c2csc3ncnc(-n4cnc5ccccc54)c23)cc1` [CBK264494], 109%.
On the same count and under the same terms, with `CC(=O)N/C(=C/c1ccc([N+](=O)[O-])cc1)C(=O)Nc1cccc(C(=O)O)c1` [CBK264495] the figure was 94.8%; with `Cc1oc2c(CN(C)C)c(O)ccc2c(=O)c1-c1cnn(-c2ccccc2)c1` [CBK264496], 101%; with `Cc1cc(C(=O)O)cc(S(=O)(=O)N2CCOCC2)c1C` [CBK264497], 89.5%.
For `O=C(O)/C=C/C(=O)Nc1ccc(S(=O)(=O)NCc2ccco2)cc1` [CBK264500], the viability at 28.5 h, 10 µM turned out to be 106%.
On the same count and under the same terms, with `COc1cc(/C=C2\SC(=N)NC2=O)cc(Cl)c1OS(=O)(=O)c1ccc(NC(C)=O)cc1` [CBK264502] the figure was 107%; with `COc1cc(-c2nc(-c3ccc(Cl)cc3)c(-c3ccccc3)[nH]2)c([N+](=O)[O-])cc1OC` [CBK264503], 98.9%.
Same read-out and setting: then `O=C(OCc1ccccc1)Sc1nnc(-c2ccc([N+](=O)[O-])cc2)o1` [CBK264504], with 91.3%.
As to `CCN(CC)S(=O)(=O)c1csc(C(=O)Nc2cccc([N+](=O)[O-])c2)c1` [CBK264505], the viability at 28.5 h, 10 µM is 91.3%.
Take `O=C(C1=C(O)C(=O)N(CCN2CCOCC2)C1c1ccco1)c1cccs1` (stereo not drawn) [CBK264506]: the viability at 28.5 h, 10 µM worked out at 96%.
On to `O=C(O)CC1SC(N/N=C/c2ccc(-c3ccc(Cl)cc3[N+](=O)[O-])o2)=NC1=O` (stereo not drawn) [CBK264507], for which the viability at 28.5 h, 10 µM is 108%.
Same read-out and setting: then `CCC(NS(=O)(=O)c1ccc(OC)cc1)C(=O)O` (stereo not drawn) [CBK264509], with 100%; and `Cc1c(C)n(O)[n+]([O-])c1-c1ccccc1` [CBK264510N], with 103%.
Same read-out and setting: then `CN(C)CCCN1C(=O)C(O)=C(C(=O)c2cccs2)C1c1cccnc1` (stereo not drawn) [CBK264511], with 88.2%.
On the same count and under the same terms, with `Cc1nc2c(C)cccc2c(O)c1CN1CCCCCC1` [CBK264512] the figure was 98.1%; with `O=C(C1=C(O)C(=O)N(Cc2cccnc2)C1c1ccncc1)c1ccc(Cl)cc1` (stereo not drawn) [CBK264513], 94.8%.
As to `O=C(O)CC1S/C(=N/N=C/c2ccc(-c3cccc([N+](=O)[O-])c3)o2)NC1=O` (stereo not drawn) [CBK264517], the viability at 28.5 h, 10 µM turned out to be 113%.
As to `Cc1n[nH]c(O)c1C(c1ccc(OC(=O)c2ccccc2Cl)cc1)c1c(C)n[nH]c1O` [CBK264520], the viability at 28.5 h, 10 µM amounted to 101%.
The same measure, in the same setting: then `CCOC(=O)CCc1nc2ccccc2nc1O` [CBK264526], with 106%; and `CCc1cc2c(=O)c(-c3cnn(-c4ccccc4)c3)c(C(F)(F)F)oc2c(CN(C)C)c1O` [CBK264530], with 90.9%; and `O=C(C1=C(O)C(=O)N(CCCN2CCOCC2)C1c1cccs1)c1cccs1` (stereo not drawn) [CBK264533], with 111%.
On the same count and under the same terms, with `Cc1ccc(S(=O)(=O)c2cccc(S(N)(=O)=O)c2)cc1S(N)(=O)=O` [CBK264535] the figure was 91.7%; with `CC1CCN(S(=O)(=O)c2ccc(NC(=O)c3ccc(Br)o3)cc2)CC1` [CBK264536], 101%; with `CN(C)S(=O)(=O)c1ccc(C(=O)C2=C(O)C(=O)N(CCN3CCOCC3)C2c2ccccc2)cc1` (stereo not drawn) [CBK264540], 111%.
On the same count and under the same terms, then `Cc1ccc(C)c(-c2nn(-c3ccccc3)cc2/C=C2\SC(=S)N(CC(=O)O)C2=O)c1` [CBK264541], with 98.4%; and `NS(=O)(=O)c1cc(C(=O)OCC(=O)c2ccccc2)c(Cl)cc1Cl` [CBK264542], with 90.8%; and `c1cncc(-c2nnc(SCc3nc4ccccc4[nH]3)o2)c1` [CBK264543], with 98.1%.
`COc1ccccc1N(CC(O)Cn1nc(C)cc1C)S(=O)(=O)c1ccccc1` (stereo not drawn) [CBK264546]: the viability at 28.5 h, 10 µM was 100%.
On the same count and under the same terms, then `O=C(C1=C(O)C(=O)N(Cc2cccnc2)C1c1cccnc1)c1cccs1` (stereo not drawn) [CBK264547], with 119%; and `COc1cccc(NC(=S)NCCCN2CCOCC2)c1` [CBK264548], with 123%; and `O=C(O)CCN1C(=O)C(O)=C(C(=O)c2ccc(Cl)cc2)C1c1ccccc1[N+](=O)[O-]` (stereo not drawn) [CBK264553], with 98.8%.
For `O=C(C1=C(O)C(=O)N(CCCN2CCOCC2)C1c1cccnc1)c1cccs1` (stereo not drawn) [CBK264555], the viability at 28.5 h, 10 µM amounted to 113%.
Same read-out and setting: with `CN1CCc2c(sc3nc(SCc4cccc5ccccc45)n(-c4ccccc4)c(=O)c23)C1` [CBK264556] the figure was 124%; with `O=C(Nc1ccccc1[N+](=O)[O-])c1cc(S(=O)(=O)NCc2ccco2)ccc1Cl` [CBK264557], 94.4%; with `CC1(C)NC(=O)N(CC(O)CN2CCCC2)C1=O` (stereo not drawn) [CBK264558], 96.3%.

The series is the same for the next values; noted with them: human, hela cells, % viability, bulk resorufin, single well.
On to `CN1C(=O)C(=CNCCCC(=O)O)C(=O)N(C)C1=O` [CBK264420], for which the viability at 28.5 h, 10 µM came to 90.4%.
Consider `CCOc1cc(/C=C2/C(=O)NC(=S)N(c3ccccc3CC)C2=O)ccc1OC(C)C(=O)O` (stereo not drawn) [CBK264460], for which the viability at 28.5 h, 10 µM amounted to 97.8%.
